Measurements: patent US11739194B2, “Glycerol-silicone elastomers as active matrices with controllable release profiles” (Danmarks Tekniske Universitet, priority 2017, dated 2023)

Assays:
[1] = Hydroquinone release from single compartment glycerol-silicone elastomers immersed in deionized water (UV-vis); format: physicochemical; conditions: hydroquinone alone (single glycerol phase), 80 phr total glycerol concentration
Method: The example provided leads to a 1.42 g batch of material that may readily be scaled up or down. Using the described method batches from between 1 g and 80 g were prepared. Hydroquinone (HQ, 0.02 g, 5 wt. %) was dissolved in glycerol (0.4 g) at 50° C. using magnetic stirring until a clear solution was obtained (typically around 1-2 hours). […] Sample nomenclature uses the pattern GX HQY S184 Z, where G and X correspond to glycerol and concentration of glycerol in phr (weight parts per hundred weight parts of silicone elastomer), HQ and Y correspond to hydroquinone and concentration of hydroquinone dissolved in glycerol (expressed as weight percentage of HQ in glycerol) and S184 corresponds to applied silicone composition, respectively. […]
Release profiles of HQ from the glycerol-silicone elastomers were determined by immersing composites containing various amounts of glycerol with 5 wt % of HQ in deionized water. The progress of hydroquinone release was monitored by measuring changes in concentration of hydroquinone in the aqueous environment. A UV-vis spectrophotometer POLARstar Omega microplate reader by BMG LabTech was used for the tests, and outcomes were compared against a calibration curve for hydroquinone/water solutions. […]

[2] = Erythrosine B and hydroquinone release from dual compartment glycerol-silicone elastomer immersed in deionized water (UV-vis); format: physicochemical; conditions: for release kinetics (order): dual compartment elastomer, 80 phr total glycerol concentration
Method: For the present experiment two solutions were prepared—glycerol-erythrosine B and glycerol-hydroquinone solutions. Glycerol-erythrosine B solution contained 4 g of glycerol and 0.04 g of erythrosine B. Glycerol-hydroquinone solution contained 4 g of glycerol and 0.2 g of hydroquinone. Single emulsions were prepared as detailed above and were subsequently used to prepare two distinct glycerol-in-silicone emulsions. The glycerol-erythrosine B and glycerol-hydroquinone solutions were each added to 5 g of a silicone prepolymer in respective, separate containers. In this case, Sylgard 184 silicone kit from Dow Corning was applied. The respective mixtures were subsequently speed-mixed for 2 to 5 minutes using a dual asymmetric centrifuge DAC SpeedMixer. To prepare the dual compartment silicone elastomers, the two glycerol-in-silicone emulsions were combined. Desired amounts of each of the emulsions were placed into a speed-mixing cup. The composition was subsequently speed-mixed at low mixing rates (typically between from 500 to 1000 rpm) for around 1 minute in order to uniformly distribute both types of droplets within the silicone matrix. Stable emulsions can be mixed with any given speed. […] After combining and mixing both single emulsions a dual compartment emulsion was obtained. The emulsion contained 10 g of silicone, 4.04 g of glycerol droplets containing erythrosine B and 4.2 g of glycerol droplets containing hydroquinone. The total mass of the emulsion was 18.24 g. In a final step, the elastomer emulsions were cured at 80° C. for 1 hour. Long exposure to high temperatures results in glycerol evaporation therefore prolonged high temperature curing should be avoided. […] Release profiles of erythrosine and hydroquinone from the glycerol-silicone elastomers were determined by immersing composites in deionized water. The progress of release of erythrosine B and hydroquinone was monitored by measuring changes in concentration of both compounds in the aqueous environment. […] Each release profile curve represents an average of three separate experiments. Films with thickness of 0.3 mm were investigated. Such thin films tend to self-adhere therefore they were mounted onto custom-made frames (FIG. 4) to maintain a constant exposed surface area and placed in beakers equipped with magnetic stirring.

Molecule	release kinetics (order) [1]	time after which the entire incorporated amount was released ([2]; 0.3 mm thick dual compartment elastomer, 40 phr glycerol with erythrosine B + 40 phr glycerol with hydroquinone)	share of the total amount released with zero-order kinetics ([2]; 0.3 mm thick dual compartment elastomer, 80 phr glycerol in total) [%]	release kinetics (order) [2]	amount released ([2]; after 28 hours, 0.3 mm thick dual compartment elastomer, 80 phr glycerol in total) [%]
Oc1ccc(O)cc1 [hydroquinone]	near-zero order release kinetics	around 6 hours	~80	zero-order release kinetics	–
erythrosine B	–	–	–	zero-order kinetics throughout the whole experiment	15
